From the supplement of paper PMC8092582
Structures can show the parent of a compound that is named as a salt. ± gives the standard deviation of the averaged measurements.

System: HeLa
Experiment: cell viability (CellTiter-Glo) relative to median of lowest-dilution wells of all drugs (fraction); higher = more viable cells
Protocol: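 HeLa control and CRISPR DDX11 knockout cells were seeded in 384-well plates and incubated for 72 h with each of 64 […] drugs at six concentrations. Viability was read with CellTiter-Glo and normalised to the median of the lowest (6th) dilution wells of all drugs. Two biological replicates (BR1, BR2) are averaged; the concentration unit is not stated.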

[1] = drug concentration (unit not stated): 0.04, genotype: DDX11 knockout
[2] = drug concentration (unit not stated): 0.04, genotype: control (DDX11 wild type)
[3] = drug concentration (unit not stated): 0.12, genotype: DDX11 knockout
[4] = drug concentration (unit not stated): 0.12, genotype: control (DDX11 wild type)
[5] = drug concentration (unit not stated): 0.37, genotype: DDX11 knockout
[6] = drug concentration (unit not stated): 0.37, genotype: control (DDX11 wild type)
[7] = drug concentration (unit not stated): 1.11, genotype: DDX11 knockout
[8] = drug concentration (unit not stated): 1.11, genotype: control (DDX11 wild type)
[9] = drug concentration (unit not stated): 3.33, genotype: DDX11 knockout
[10] = drug concentration (unit not stated): 3.33, genotype: control (DDX11 wild type)
[11] = drug concentration (unit not stated): 10, genotype: DDX11 knockout
[12] = drug concentration (unit not stated): 10, genotype: control (DDX11 wild type)
[13] = drug concentration (unit not stated): 0.01, genotype: DDX11 knockout
[14] = drug concentration (unit not stated): 0.01, genotype: control (DDX11 wild type)

SMILES	cell viability [1]	cell viability [2]	cell viability [3]	cell viability [4]	cell viability [5]	cell viability [6]	cell viability [7]	cell viability [8]	cell viability [9]	cell viability [10]	cell viability [11]	cell viability [12]	cell viability [13]	cell viability [14]	cell viability (drug concentration (unit not stated): 30, genotype: DDX11 knockout)	cell viability (drug concentration (unit not stated): 30, genotype: control (DDX11 wild type))
COc1ccc(C2=N[C@@H](c3ccc(Cl)cc3)[C@@H](c3ccc(Cl)cc3)N2C(=O)N2CCNC(=O)C2)c(OC(C)C)c1 [Nutlin-3]	0.977 ± 0.022	0.944 ± 0.013	0.981 ± 0.057	0.9784 ± 0.0054	0.983 ± 0.047	1.029 ± 0.0079	0.9903 ± 0.0028	0.956 ± 0.0068	0.965 ± 0.026	1.035 ± 0.0094	0.9631 ± 0.0059	1.06 ± 0.096				
CCS(=O)(=O)Nc1ccc2c(c1)/C(=C(/Nc1ccc(CN3CCCCC3)cc1)c1ccccc1)C(=O)N2 [Hesperadin]	0.981 ± 0.038	0.9913 ± 0.0085	0.85 ± 0.077	0.995 ± 0.26	0.79 ± 0.011	0.966 ± 0.21	0.696 ± 0.026	0.838 ± 0.12					1.038 ± 0.0037	1.02 ± 0.011		
CNC(=O)c1cccc(-c2ccc3c(N4CCOC[C@@H]4C)nc(N4CCOC[C@@H]4C)nc3n2)c1 [Vistusertib (AZD2014)]	0.902 ± 0.082	0.938 ± 0.15	0.777 ± 0.13	0.973 ± 0.3	0.668 ± 0.16	0.917 ± 0.29	0.449 ± 0.081	0.637 ± 0.16	0.356 ± 0.03	0.533 ± 0.17	0.344 ± 0.048	0.436 ± 0.17				
COc1ncc(-c2ccc3nccc(-c4ccnnc4)c3c2)cc1NS(=O)(=O)c1ccc(F)cc1F	0.57 ± 0.044	0.661 ± 0.17	0.467 ± 0.073	0.528 ± 0.19	0.33 ± 0.046	0.458 ± 0.18	0.326 ± 0.042	0.416 ± 0.12	0.304 ± 0.04	0.373 ± 0.12			0.657 ± 0.037	0.774 ± 0.23		
O=c1[nH]c(=O)n([C@H]2C[C@H](O)[C@@H](CO)O2)cc1F [Floxuridine]	1 ± 0.05	1.1 ± 0.054	0.961 ± 0.15	0.998 ± 0.019	1.01 ± 0.13	0.952 ± 0.19	0.858 ± 0.19	0.874 ± 0.31	0.76 ± 0.43	0.786 ± 0.51			1.04 ± 0.047	1.2 ± 0.21		
COc1cccc2c1C(=O)c1c(O)c3c(c(O)c1C2=O)C[C@@](O)(C(=O)CO)C[C@@H]3O[C@H]1C[C@H](N)[C@H](O)[C@H](C)O1 [Doxorubicin (Adriamycin)]	0.923 ± 0.087	0.986 ± 0.0043	0.75 ± 0.18	0.96 ± 0.41	0.328 ± 0.4	0.679 ± 0.6	0.024 ± 0.0057	0.153 ± 0.2	0.0172 ± 0.0017	0.0179 ± 0.006			1.02 ± 0.03	0.9786 ± 0.0019		
CC[C@@]1(O)C(=O)OCc2c1cc1n(c2=O)Cc2cc3c(CN(C)C)c(O)ccc3nc2-1 [Topotecan HCl]	0.519 ± 0.38	0.709 ± 0.57	0.206 ± 0.19	0.228 ± 0.21	0.0639 ± 0.033	0.0738 ± 0.043	0.0268 ± 0.0046	0.0567 ± 0.046	0.0244 ± 0.0069	0.0265 ± 0.01			0.74 ± 0.27	0.86 ± 0.14		
CCCCCCNC(=O)n1cc(F)c(=O)[nH]c1=O [Carmofur]	1.01 ± 0.038	0.998 ± 0.026	1.02 ± 0.019	1.007 ± 0.0099	1.09 ± 0.081	1.05 ± 0.044	1.02 ± 0.093	1.07 ± 0.22	0.956 ± 0.24	1.03 ± 0.46	0.857 ± 0.2	0.924 ± 0.39				
CCN(CCO)CCCOc1ccc2c(Nc3cc(CC(=O)Nc4cccc(F)c4)[nH]n3)ncnc2c1 [AZD1152-HQPA (Barasertib)]	0.927 ± 0.032	0.985 ± 0.18	0.912 ± 0.066	1.01 ± 0.22	0.883 ± 0.1	0.97 ± 0.28	0.888 ± 0.051	0.964 ± 0.21	0.831 ± 0.027	0.957 ± 0.25	0.813 ± 0.064	0.953 ± 0.23				
Nc1nc(F)nc2c1ncn2[C@@H]1O[C@H](COP(=O)(O)O)[C@@H](O)[C@@H]1O [Fludarabine Phosphate (Fludara)]	1.0709 ± 0.00057	1.04 ± 0.014	1.03 ± 0.061	1.04 ± 0.012	1.02 ± 0.12	1.0367 ± 0.00023	1.08 ± 0.024	1.07 ± 0.029	1.06 ± 0.046	1.15 ± 0.028	1.07 ± 0.027	1.16 ± 0.12				
O=C(O)C1(C(=O)O)CCC1.[NH2-].[NH2-].[Pt+2] [Carboplatin]			0.981 ± 0.017	1.013 ± 0.0026	0.909 ± 0.031	1.03 ± 0.039	0.829 ± 0.04	1.05 ± 0.14	0.425 ± 0.056	0.904 ± 0.45	0.165 ± 0.021	0.331 ± 0.16			0.0472 ± 0.0054	0.0483 ± 0.0055
CN1CC[C@H](c2c(O)cc(O)c3c(=O)cc(-c4ccccc4Cl)oc23)[C@H](O)C1 [Alvocidib (Flavopiridol)]	1.11 ± 0.067	1.09 ± 0.031	0.972 ± 0.013	1.16 ± 0.29	0.106 ± 0.023	0.172 ± 0.022	0.163 ± 0.036	0.244 ± 0.086	0.0793 ± 0.033	0.11 ± 0.0096			1.03 ± 0.079	1.02 ± 0.067		
Cn1cnc2c(F)c(Nc3ccc(Br)cc3Cl)c(C(=O)NOCCO)cc21 [Selumetinib (AZD6244)]	0.991 ± 0.022	0.985 ± 0.059	0.963 ± 0.029	0.957 ± 0.085	0.9 ± 0.078	0.95 ± 0.15	0.902 ± 0.082	0.955 ± 0.12	0.855 ± 0.067	0.935 ± 0.22	0.744 ± 0.13	0.913 ± 0.38				
CC(=O)Nc1cccc(-n2c(=O)n(C3CC3)c(=O)c3c(Nc4ccc(I)cc4F)n(C)c(=O)c(C)c32)c1 [Trametinib]	0.814 ± 0.081	0.908 ± 0.2	0.773 ± 0.058	0.914 ± 0.18	0.861 ± 0.12	0.976 ± 0.28	0.736 ± 0.17	0.952 ± 0.31	0.613 ± 0.23	0.968 ± 0.34	0.46 ± 0.03	0.706 ± 0.17				
COC1=CC(c2cc3ccccc3[nH]2)=N/C1=C\c1[nH]c(C)cc1C [Obatoclax mesylate]	1.07 ± 0.017	1.01 ± 0.056	0.872 ± 0.087	1.05 ± 0.19	0.56 ± 0.044	0.728 ± 0.13	0.307 ± 0.026	0.415 ± 0.13	0.25 ± 0.017	0.344 ± 0.14	0.141 ± 0.062	0.0791 ± 0.041				
Nc1nc2[nH]cnc2c(=S)[nH]1 [Thioguanine]	1.03 ± 0.045	1.04 ± 0.04	0.992 ± 0.017	0.971 ± 0.044	0.94 ± 0.039	0.762 ± 0.065	0.731 ± 0.15	0.428 ± 0.15	0.536 ± 0.12	0.433 ± 0.21	0.239 ± 0.025	0.387 ± 0.2				
C=CCn1c(=O)c2cnc(Nc3ccc(N4CCN(C)CC4)cc3)nc2n1-c1cccc(C(C)(C)O)n1 [AZD1775]	0.9297 ± 0.0031	0.962 ± 0.028	0.922 ± 0.021	0.951 ± 0.021	0.85 ± 0.048	0.959 ± 0.025	0.423 ± 0.12	0.615 ± 0.014	0.213 ± 0.0052	0.288 ± 0.11	0.0863 ± 0.058	0.092 ± 0.087				
O=C(Nc1c[nH]nc1-c1nc2ccc(CN3CCOCC3)cc2[nH]1)NC1CC1 [AT9283]	0.94 ± 0.015	0.939 ± 0.053	1.07 ± 0.076	1 ± 0.042	1.04 ± 0.046	1.07 ± 0.069	0.769 ± 0.4	0.799 ± 0.063	0.469 ± 0.41	0.504 ± 0.12			1.03 ± 0.023	0.988 ± 0.066		
Nc1nc(Cl)nc2c1ncn2[C@@H]1O[C@H](CO)[C@@H](O)[C@@H]1F [Clofarabine]	0.967 ± 0.12	0.999 ± 0.11	0.699 ± 0.46	0.887 ± 0.6	0.177 ± 0.19	0.181 ± 0.2	0.0355 ± 0.013	0.0535 ± 0.038					1.03 ± 0.061	1.04 ± 0.013		
NC(=O)Nc1cc(-c2cccc(F)c2)sc1C(=O)N[C@H]1CCCNC1 [AZD7762]	1.011 ± 0.0048	1.04 ± 0.043	0.992 ± 0.051	0.959 ± 0.023	0.819 ± 0.055	0.896 ± 0.16	0.36 ± 0.022	0.647 ± 0.3	0.142 ± 0.014	0.299 ± 0.12			1.08 ± 0.072	1.02 ± 0.025		
